For seven compounds, inhibition results are on record in PubChem BioAssay AID624437 (The Scripps Research Institute Molecular Screening Center, 2012).

Each structure is given as a SMILES string. Activity calls are given as the source filed them.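 Rule for the calls: active = PP1 inhibition of at least 30% at 50 µM, though none qualified; inactive = the rest.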

This assay deals with Serine/threonine-protein phosphatase PP1-alpha catalytic subunit (Homo sapiens) (UniProt P62136). The assay is described as follows: inhibitors of PP1 histone dephosphorylation – biochemical, 33P-phosphohistone, radiolabel, single concentration, round 5, selectivity assay for PP5 inhibitor project, late-stage follow-up (AID 624437). Particulars: purified PP1alpha, 33P-phosphohistone dephosphorylation, scintillation; at 50 µM; active compounds read high.
Sequence of Serine/threonine-protein phosphatase PP1-alpha catalytic subunit (Homo sapiens) (P62136 whole entry, looked up): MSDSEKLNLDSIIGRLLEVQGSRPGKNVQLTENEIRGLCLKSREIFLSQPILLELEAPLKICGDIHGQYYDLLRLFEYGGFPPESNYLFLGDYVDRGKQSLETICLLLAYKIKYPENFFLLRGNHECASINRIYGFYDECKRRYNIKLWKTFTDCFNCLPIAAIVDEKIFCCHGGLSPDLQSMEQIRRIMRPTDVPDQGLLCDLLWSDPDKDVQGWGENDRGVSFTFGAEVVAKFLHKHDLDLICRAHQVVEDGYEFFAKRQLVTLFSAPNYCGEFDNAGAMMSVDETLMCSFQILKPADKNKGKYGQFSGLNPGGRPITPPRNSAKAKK
On to `O=C(O)c1n[nH]nc1-c1ccccc1F`, for which the inhibition is 20.5% (inactive). Then `O=C(O)c1n[nH]nc1-c1cccc(F)c1`, with 10.3% (inactive). Then `O=C(O)c1n[nH]nc1-c1ccc(F)cc1`, with 10.4% (inactive); and `O=C(O)c1n[nH]nc1-c1ccccc1O`, with 10.9% (inactive); and `COc1cccc(-c2n[nH]nc2C(=O)O)c1`, with 11.1% (inactive). Then `COc1ccc(-c2n[nH]nc2C(=O)O)cc1`, with 1.04% (inactive). `COc1ccccc1-c1n[nH]nc1C(=O)O`: the inhibition was 23.3% (inactive).

What is called inhibition is the change of the read-out against control, counted positive when it falls.
